45 compounds from a melting point compilation (Tetko et al.) can be followed below.

The term melting point denotes the temperature of the solid-liquid transition. Take `O=C1Cc2ccccc2O1`: the melting point came to 50 °C. Take `Nc1c(Cl)cc([N+](=O)[O-])cc1Br`: the melting point was 175 °C. The value for `CCCCOCCOC(C)=O` was -63 °C.

Regarding `O=c1ccn(C2CCC(CO)O2)c(=O)[nH]1` (stereo not given), the melting point is 128 °C. `Cc1cc(CO)ccc1[N+](=O)[O-]` yielded a melting point of 56 to 60 °C.

Compound `Nc1ccc(S(=O)c2ccc(N)cc2)cc1` returned a melting point of 175 °C.

In turn, `O=C(c1ccccc1)c1ccccc1N=Nc1ccccc1C(=O)c1ccccc1` yielded a melting point of 205 °C. `Cc1ccc(CO)cc1F`: the melting point was determined as 35 °C. Then `COc1ccccc1CN=C=S`, with 28 °C.

Take `CN(C)C=Nc1c(I)cc(I)c(CCC(=O)O)c1I`: the melting point was determined as 168 °C. With `O=C(O)c1ccc(CN2CCS(=O)(=O)CC2)cc1`, the melting point fell in the range of 222 to 223 °C. Then `COc1ccc(C=CC(=O)OCCOc2ccc(C=CC(=O)c3ccccc3)cc2)cc1`, with 142 °C.

Compound `Brc1cccc2c(/C=N/Nc3ccccc3)cccc12` yielded a melting point of 105 °C. On to `FC(Cl)(Cl)c1ccccc1`, for which the melting point was -26.8 °C. Consider `O=C(C=NNc1ccccc1)c1ccc(C(=O)C=NNc2ccccc2)c([N+](=O)[O-])c1`, for which the melting point was 100 °C.

The compound `CC(C)(C)c1cc(C=O)cc(C(C)(C)C)c1` displayed a melting point of 82 to 87 °C. `CN(C)c1ccc(C=Nc2n[nH]c(N=Cc3ccc(N(C)C)cc3)c2Cc2ccc(Cl)cc2)cc1` came in with a melting point of 260 to 262 °C. With `FC(F)(F)C(F)(F)C(F)(F)C(F)(F)C(F)(F)C(F)(F)F`, the melting point is -4 °C. The value for `BrC/C=C/CBr` was 53.4 °C; that for `CC/C(=N\O)C1CC2(C)CCC1C2(C)C` (stereo not given) was 92.5 °C; that for `Cn1nnc2cc(C=O)ccc21` was 162 °C. As for `CC(C)(C)NC(N)=O`, the melting point was in the range of 178 to 182 °C. `CC(=O)OC1(C(C)=O)CCC2C3CC(C)C4=CC(=O)CCC4(C)C3CCC21C` (stereo not given) returned a melting point of 206 °C. `COc1ccc2nc(C)ccc2c1` came in with a melting point of 64 °C.

Compound `CC(=O)c1ccccc1[N+](=O)[O-]` returned a melting point of 28.5 °C. Then `CC(C)C1C(=O)NC(=O)NC1=O`, with 214 °C; and `CCSc1sc(C#N)c2c1C(=O)CC(C)(C)C2`, with 150 to 153 °C; and `ClCCCCCCCCCCCCCl`, with 29 °C. In the case of `O=C1CCCCCN1c1ccccc1`, the melting point amounted to 57 °C. On to `C#CCCCCCC`, for which the melting point was -60 °C. Then `NS(=O)(=O)c1ccc(Cl)c(S(N)(=O)=O)c1`, with 207 °C; and `Cc1ccc(NC(=O)C(O)C(O)C(=O)O)cc1` (single isomer, unassigned; (-)), with 191 to 192 °C.

`O=C(O)c1c[nH]cn1` displayed a melting point of 243 to 245 °C. Then `CC(CCC(=O)O)C1CCC2C3CCC4CC(=O)CCC4(C)C3CC(O)C12C` (stereo not given), with 107 to 109 °C; and `NNc1ccc(I)cc1`, with 101 to 102 °C; and `CCOc1cc(C)ccc1O`, with 30.5 °C. In turn, `N#Cc1c(N)cccc1Cl` came in with a melting point of 135 to 137 °C. Then `CC(C)(C)N(NC(=O)c1ccccc1)C(=O)c1ccccc1C(F)(F)F`, with 172 °C; and `COc1cc(OC)c(C#N)c(OC)c1`, with 142 to 145 °C.

`FC(F)(F)c1ccc2[nH]c(S)nc2c1`: the melting point lay within 277 to 279 °C.

Compound `CC(=O)OC1(C)Cc2c(C)c(C)c(C)c(C)c21` (stereo not given) returned a melting point of 70 °C.

`CC=C1CCC2C3CC=C4CC(OC(C)=O)CCC4(C)C3CCC12C` (stereo not given) displayed a melting point of 137 °C. The compound `CCOc1c(NCc2ccccc2)c(=O)c1=O` gave a melting point of 68 to 72 °C. The value for `c1ccc2c(c1)CCc1ccccc1CC2` was 109 °C. The compound `Cc1ccc(C(C)C(=O)O)cc1` (stereo not given) displayed a melting point of 41 °C.
